Each structure is given as a SMILES string.

Turning to `*C(=O)Nc1ccc(/N=N/c2ccc([N+](=O)[O-])cc2)c(NC(=O)c2ccc3c(c2)C(=O)N(c2c(C)cc(Cc4cc(C)c(N5C(=O)c6ccc(*)cc6C5=O)c(C)c4)cc2C)C3=O)c1` (repeat unit), the glass transition temperature came to 264.00 °C. The figure for `*C(=O)OCC(C)(C)CS(=O)(=O)CC(C)(C)COC(=O)N1CC(C)N(*)CC1C` (repeat unit) is 85.00 °C; for `*CC(=C)COCC(=C)COC(=O)O*` (repeat unit) it is 70.50 °C; for `*CC(=O)NCCCCCCNC(=O)CO*` (repeat unit) it is 10.00 °C. Under `*CC(=O)NCCCCCCNC(=O)Cc1ccc(O*)cc1` (repeat unit) stands 69.50 °C; under `*CC(C)(C)CO*` (repeat unit), -50.00 °C.

Regarding `*CC(C)(C)COC(=O)c1ccc(C(=O)O*)cc1` (repeat unit), the glass transition temperature was 68.00 °C. Under `*CC(C)(C)CS*` (repeat unit) stands -49.30 °C; under `*CC(C)(CC)COC(=O)c1ccc(C(=O)O*)cc1` (repeat unit), 63.00 °C. On to `*CC(C)(CC)CS*` (repeat unit), for which the glass transition temperature is -50.00 °C.

Regarding `*CC(C)(CO*)COCC(F)(F)F` (repeat unit), the glass transition temperature is -41.00 °C. Under `*CC(C)(CO*)COCCC#N` (repeat unit) stands -52.00 °C; under `*CC(C)(CO*)COCCCCCCCCCCOc1ccc(-c2ccc(C#N)cc2)cc1` (repeat unit), 7.00 °C. Under `*CC(C)C(C)COC(=O)c1ccc(C(=O)O*)cc1` (repeat unit) stands 37.50 °C.

As to `*CC(C)CO*` (repeat unit), the glass transition temperature is -55.00 °C. Turning to `*CC(CC)(CC)CS*` (repeat unit), the glass transition temperature is -36.2 °C. Turning to `*CC(CC)(CO)CO*` (repeat unit), the glass transition temperature was 331.90 °C. Under `*CC(CC)C(CC)COC(=O)c1ccc(C(=O)O*)cc1` (repeat unit) stands 32.00 °C. Under `*CC(CCC)C(CCC)COC(=O)c1ccc(C(=O)O*)cc1` (repeat unit) stands 30.00 °C; under `*CC(CCCC)C(CCCC)COC(=O)c1ccc(C(=O)O*)cc1` (repeat unit), 16.00 °C; under `*CC(CO)(CO)CO*` (repeat unit), 99.00 °C. The compound `*CC(CO*)(CS(=O)(=O)C(C)C)CS(=O)(=O)C(C)C` (repeat unit) yielded a glass transition temperature of 91.00 °C. Under `*CC(CO*)(CS(=O)(=O)CCC)CS(=O)(=O)CCC` (repeat unit) stands 71.00 °C; under `*CC(CO*)(CS(=O)(=O)CCCC)CS(=O)(=O)CCCC` (repeat unit), 66.00 °C; under `*CC(CO*)(CS(C)(=O)=O)CS(C)(=O)=O` (repeat unit), 126.00 °C.

Take `*CC(CO*)(CSC)CSC` (repeat unit): the glass transition temperature was -6.00 °C.

For the compound `*CC(CO*)(CSCC)CSCC` (repeat unit), the glass transition temperature was -32.00 °C.

For the compound `*CC(CO*)(CSCCCCC)CSCCCCC` (repeat unit), the glass transition temperature was -33.00 °C. Consider `*CC(CO*)C(C)(C)C` (repeat unit), for which the glass transition temperature is -4.00 °C. The figure for `*CC(COc1c(Cl)cc(C(C)(C)c2cc(Cl)c(O*)c(Cl)c2)cc1Cl)OC(C)=O` (repeat unit) is 100.00 °C; for `*CC(COc1ccc(C(C)(c2ccccc2)c2ccc(O*)cc2)cc1)OC(C)=O` (repeat unit) it is 110.00 °C; for `*CC(O)COc1ccc(Cc2ccc(O*)cc2)cc1` (repeat unit) it is 143.20 °C. In turn, `*CC(OO*)c1ccc(C)cc1` (repeat unit) returned a glass transition temperature of 4.60 °C. Consider `*CCOCC(=O)O*` (repeat unit), for which the glass transition temperature was -12.60 °C. The figure for `*CCSSCCOCO*` (repeat unit) is -57.50 °C; for `*COC1OC(*)C(O)C(O)C1O` (repeat unit) it is 200.00 °C. On to `*C[Si](*)(C)CCCCCC` (repeat unit), for which the glass transition temperature is -77.60 °C. Compound `*C[Si](*)(C)CCCn1c2ccccc2c2ccccc21` (repeat unit) showed a glass transition temperature of 71.20 °C. In the case of `*C[Si](*)(CCC)CCC` (repeat unit), the glass transition temperature is -41.00 °C.

In the case of `*C[Si](*)(CCCCCC)CCCCCC` (repeat unit), the glass transition temperature was -56.00 °C. Turning to `*C[Si](C)(C)[Si](C)(C)[Si](C)(C)[Si](*)(C)C` (repeat unit), the glass transition temperature is -68.00 °C. `*Cc1ccc(CSSS*)cc1` (repeat unit): the glass transition temperature was determined as 8.00 °C. Under `*Cc1ccc(C[n+]2ccc(-c3cc[n+](*)cc3)cc2)cc1` (repeat unit) stands 95.00 °C; under `*Cc1ccccc1CSS*` (repeat unit), 39.00 °C; under `*Cc1ccccc1C[n+]1ccc(-c2cc[n+](*)cc2)cc1` (repeat unit), 70.50 °C. With `*OC(C)COC(=O)c1ccccc1C(*)=O` (repeat unit), the glass transition temperature came out at 95.00 °C. The compound `*OC(C)COCC(C)OC(=O)c1ccccc1C(*)=O` (repeat unit) registered a glass transition temperature of 25.00 °C. `*OC(COC(=O)c1cccc(C(*)=O)c1)COc1ccc(/N=N/c2ccc(C#N)cc2)cc1` (repeat unit) gave a glass transition temperature of 119.00 °C. The figure for `*OC(COC(=O)c1ccccc1-c1ccccc1C(*)=O)COc1ccc(/N=N/c2ccc(C#N)cc2)cc1` (repeat unit) is 120.00 °C. The compound `*OC(COC(=O)c1ccccc1C(*)=O)COc1ccc(/N=N/c2ccc(C#N)cc2)cc1` (repeat unit) had a glass transition temperature of 105.00 °C. With `*Oc1ccc(C(=O)OCC(C)(C)COC(=O)c2ccc(*)cc2)cc1` (repeat unit), the glass transition temperature turned out to be 73.00 °C.

Compound `*c1c(C)cc(Cc2cc(C)c(N3C(=O)c4ccc(Oc5ccc(C(C)(C)c6ccc(Oc7ccc8c(c7)C(=O)N(*)C8=O)cc6)cc5)cc4C3=O)c(C)c2)cc1C` (repeat unit) showed a glass transition temperature of 247.00 °C. As to `*c1c(C)cc(Cc2cc(C)c(N3C(=O)c4cccc(Oc5ccc(C(C)(C)c6ccc(Oc7cccc8c7C(=O)N(*)C8=O)cc6)cc5)c4C3=O)c(C)c2)cc1C` (repeat unit), the glass transition temperature was determined as 223.00 °C. Under `*c1ccc(C(=O)NC(CC)COC(=O)c2ccc(N3C(=O)CC(SCCCCCSC4CC(=O)N(*)C4=O)C3=O)cc2)cc1` (repeat unit) stands 91.00 °C. As for `*c1ccc2c(c1)C(=O)N(c1cc(C(=O)Nc3cccc4c(NC(=O)c5ccc(C)c(N6C(=O)c7ccc(C(*)(C(F)(F)F)C(F)(F)F)cc7C6=O)c5)cccc34)ccc1C)C2=O` (repeat unit), the glass transition temperature came out at 250.00 °C. As for `*c1ccc2c(c1)C(=O)N(c1ccc(OC(CCCCCC)COc3ccc(N4C(=O)c5ccc(C(*)(C(F)(F)F)C(F)(F)F)cc5C4=O)cc3)cc1)C2=O` (repeat unit), the glass transition temperature stood at 182.00 °C.

The values are drawn from the PolyMetriX glass transition set.
